The values below come from patent publication US6767897B2, “Therapeutic uses of tri-, tetra-, penta-, and polypeptides” (Innapharma, Inc., priority 1994, dated 2004).

Residues, ends and D or L forms follow the SMILES beside them.

The conditions of series [1]: rat, in vivo, sc.
Series [2] deals with animal models for depression. Conditions: in vivo; cited from earlier work.

Regarding “4-F-Phe-cis- or trans-4-OH-Pro-Arg-Gly-Trp-NH2 [SEQ ID NO:43]”, in series [1], the “levels found in the hippocampus and the amygdala” value was “found at detectable levels and substantially unchaged in the hippocampus and the amygdala”.
With `CC(C)C[C@H](NC(=O)[C@@H]1CCCN1)C(=O)NCC(N)=O` [MIF, prolyl-leucyl-glycinamide] (H-Pro-Leu-Gly-NH2), the “activity in animal models for depression” value in series [2] is recorded as “active in a number of animal models for depression”.
